In patent US11135181B2, “Treatment for depression and depressive disorders” (Medlab IP Pty Ltd, priority 2014, dated 2021):

Key:
Format in all cases: in vivo, human
[1] = tested on: subjects diagnosed with depression; assay: Clinical depression status at study endpoint; conditions: 8 weeks, 1600 mg per day
Source text: (§1) The study received ethical approval from the Medical Research Ethics Committee (MREC) University of Queensland, Australia, within the guidelines of the National Statement on Ethical Conduct in Human Research. All participants provided written informed consent for the study.
(§2) The subjects were selected for inclusion in the study as follows. At the completion of a 15 week study investigating SAMe treatment of depression, suboptimal treatment responders (n=8) were inducted into the present orotate study after a 2 week wash out period. Sub-optimal treatment responders were defined as those still experiencing clinical depression by the SAMe study endpoint, which consisted of six participants with major depression and two with moderate depression. The subjects comprised six females between 33 to 70 years of age (mean age of 53 years) and two males between 48-54 years of age (mean age of 51 years). The orotate study was conducted as a single group study for 8 weeks (mean time for SAMe responders) with a focus was on efficacy.
(§3) Inclusion criteria also required a primary diagnosis of major depression that has a verifiable history of being treatment resistant, current medication type being SSRIs (for standardisation purposes), and at least 18 years of age with no upper age limit. Participants were also asked not to take any nutritional supplements such as B group vitamins or other supplements that have antidepressant effects (a list was provided to participants).
The magnesium orotate was administered in capsule form, each capsule comprising 400 mg magnesium orotate. The daily dose of 1600 mg magnesium orotate was provided as two capsules taken in the morning and two capsules taken at night.

[2] = tested on: subjects diagnosed with depression; assay: Warwick-Edinburgh Mental Well-Being Scale (WBS) in subjects with treatment-resistant depression
Source text: WBS has 14 items and assesses feelings and thoughts associated with mood (α=0.91) with higher scores indicate better mood. It has a different factor structure to the BDI and DASS and was used in this study as a measure of mood improvement.
as §1
The subjects were selected for inclusion in the study as follows. At the completion of a 15 week study investigating SAMe treatment of depression, suboptimal treatment responders (n=8) were inducted into the present orotate study after a 2 week wash out period. Sub-optimal treatment responders were defined as those still experiencing clinical depression by the SAMe study endpoint, which consisted of six participants with major depression and two with moderate depression. […]
(§4) Depression was monitored in the treated subjects over the eight week course using a variety of well known methodologies: the Beck Depression Inventory (BDI); the Depression and Anxiety Stress Scale (DASS); Outcome Questionnaire-45 (OQ45); the Warwick-Edinburgh Mental Well-Being Scale (WBS); and a Quality of Life (QoL score).

[3] = tested on: subjects diagnosed with depression; assay: Outcome Questionnaire-45 (OQ45) in subjects with treatment-resistant depression; conditions: n=8
Source text: OQ45 is a self-report symptom and distress inventory designed as an independent measure of symptom distress and functioning to assess the response to intervention at regular intervals such as on a weekly bases (α=0.93, & κ>0.83). The OQ45 consists of 45 items with a five point scale. A high total score […] indicates a high level of symptom distress (anxiety, depression, and somatic, work and social role problems). Lower scores indicate less severity of problems. Average community non-clinical scores cut off (CO) occur at about >63, and changes of 14 points in either direction are typically considered clinically significant change and are reliable. […]
as §4
(§5) Three subjects were administered a probiotic supplement containing magnesium orotate for eight weeks, and measures of depression (BDI and OQ45) assessed. […]
(§6) BDI and OQ45 were assessed for each subject as described in Example 1, at the beginning of the study prior to the initiation of treatment and again at the completion of eight weeks of combined magnesium orotate plus probiotic administration. […]

[4] = tested on: subjects diagnosed with depression; assay: Quality of Life (QoL) score in subjects with treatment-resistant depression
Source text: QoL has 16 items and evaluates perceived satisfaction with life over a number of domains (α=0.85). QoL typically provides an important evaluation of perception of life circumstances and stressors.
as §1, §2, §3
The magnesium orotate was administered in capsule form, each capsule comprising 400 mg magnesium orotate. […]
as §4

[5] = tested on: subjects diagnosed with depression; assay: Beck Depression Inventory (BDI) in subjects with treatment-resistant depression
Source text: BDI is a 21-item self-report inventory that is widely used to assess depression. It has high internal constancy and correlates highly with other self-report measures of depression (α=0.60−0.90).
as §1
as §2, with “efficacy. […]” for “efficacy.”
as §4, §5, §6

[6] = tested on: subjects diagnosed with depression; assay: Depression and Anxiety Stress Scale (DASS) in subjects with treatment-resistant depression
Source text: The DASS short form is a 21 item self-report scale designed to measure depression and anxiety and was used here as a secondary self-report assessment. The DASS has high internal consistency and yields meaningful discriminations in a variety of settings (α=0.88-0.96).
as §1, §2
as §3, with “participants). […]” for “participants).”
as §4

[7] = after 8 weeks of 1600 mg per day oral capsules, n=8

In the case of magnesium orotate, the “share of the group in clinical remission by the endpoint” value [1] was 50%, the “share of the group mildly depressed” value [1] was 10% and the “share of the group that remained moderately depressed” value [1] was 30%. For the same substance, the “share of the group without any clinical change” value [1] was 10%, the “WBS mean score, Pre-Treatment” value ([2]; baseline before treatment, n=8, higher score = better mood) was 34.6 and the “WBS paired difference, mean (MWBS-WMBS8)” value ([2]; baseline minus week 8, 1600 mg per day, Sig. (2-tailed) .025) was −11. For the same substance, the “OQ45 mean score, Post-Treatment” value ([3]; after 8 weeks of 1600 mg per day oral capsules) was 54.2, the “OQ45 mean score, Pre-Treatment” value ([3]; baseline before treatment) was 86.6 and the “QoL mean score, Post-Treatment” value [4, 7] was 76.0. The “QoL mean score, Pre-Treatment” value ([4]; baseline before treatment, n=8) was 55.2, the “QoL paired difference, mean (QoL-QoL8)” value ([4]; baseline minus week 8, 1600 mg per day, Sig. (2-tailed) .027) was −20.75 and the “BDI change score (mean, pre- versus post treatment)” value ([5]; 8 weeks, 1600 mg per day, p=0.021) was 19. The “BDI mean score, Post-Treatment” value [5, 7] was 14.1, the “BDI mean score, Pre-Treatment” value ([5]; baseline before treatment, n=8 SAMe suboptimal responders on SSRIs) was 33.8 and the “DASS mean score, Post-Treatment” value [6, 7] was 25.2. The “DASS mean score, Pre-Treatment” value ([6]; baseline before treatment, n=8) was 44.7 and the “DASS paired difference, mean (DASS-DASS8)” value ([6]; baseline minus week 8, 1600 mg per day, Sig. (2-tailed) .032) was 19.5.
